From article PMC7580722, “Design of new disubstituted imidazo[1,2-b]pyridazine derivatives as selective Haspin inhibitors. Synthesis, binding mode and anticancer biological evaluation” (Journal of Enzyme Inhibition and Medicinal Chemistry, 2020)

Columns and labels:
[1] = biological target: T1, HsCdk2/Cyclin A (Homo sapiens, UniProt P24941); test: CDK2 kinase assay; assay type: biochemical
T1 construct: made in house; host or cells: baculovirus/Sf9 cells
Method: (§1) Values are IC50 expressed in µM and calculated from dose–response curves (each point on the curves was performed in triplicate). Selectivity indexes (SI; in brackets) are calculated as follows: SI = IC50 kinase X/IC50 Haspin. ND: not determined. *IC50 values obtained using the ADP-Glo methodology (see Experimental section, Supplementary Material). […]
A, HsCdk9/Cyclin T). Native SscCK1δ /ε and SscGSK3α/β were purified from pig brain whereas HsPlk1, HsCdk1 and HsAurora B were purchased from ProQinase and SignalChem respectively. Kinase assays were performed in […]
mCi/ml; PerkinElmer) in a final volume of 30 µl as previously reported 51. After 30 min incubation at 30°C, the reaction mix was spotted onto GE healthcare P81 phosphocellulose paper using a FilterMate Harvester (PerkinElmer), and the filter was extensively washed with a 1% phosphoric acid solution. The wet filter-bound radioactivity was determined in the presence of 20 µl scintillation fluid (GE healthcare) with a TopCount® Scintillation and Luminescence Counter (PerkinElmer). IC50 values were calculated from dose-response curves […]
Kinase activities using the ADP-Glo methodology (ADP-Glo Kinase Assay; Promega) were assayed according to the assay described in Nguyen et al. 52 and Ibrahim et al. 53. […]

[2] = test system: HsCdk5/p25; test: CDK5 kinase assay; assay type: biochemical, human; conditions: SI = IC50 kinase X/IC50 Haspin
Method: as §1
(§2) The reaction was carried out as described in general procedure A using 4 (0.150 g, 0.58 mmol, 1 equiv.), 2-aminopyrimidine-5-boronic acid (0.122 g, 0.88 mmol, 1.5 equiv.) and Cs2CO3 (0.575 g, 1.75 mmol, 3 equiv.). The crude mixture was purified by flash chromatography on silica gel (EtOAc) to afford 28 (0.115 g, 73 %) as a yellow […]
(§3) The reaction was carried out as described in general procedure A using 4 (0.100 g, 0.39 mmol, 1 equiv.), 1-naphthaleneboronic acid (0.083g, 0.47 mmol, 1.2 equiv.) and Cs2CO3 (0.381 g, 1.17 mmol, 3 equiv.). […]
(§4) Recombinant protein kinases were expressed and purified from E. coli (HsHaspin kinase domain aa470-798, HsCdk5/p25, RnDYRK1A kinase domain aa1-499, HsPIM1, MmCLK1) or baculovirus/Sf9 cells (HsCdk2/Cyclin A, HsCdk9/Cyclin T). […] The wet filter-bound radioactivity was determined in the presence of 20 µl scintillation fluid (GE healthcare) with a TopCount® Scintillation and Luminescence Counter (PerkinElmer). IC50 values were calculated from dose-response curves […]

[3] = test system: HsCdk9/Cyclin T; test: CDK9 kinase assay; assay type: biochemical, human; conditions: SI = IC50 kinase X/IC50 Haspin
Method: as §1, §2, §3, §4

[4] = test system: RPE-1; test: Cell viability, monolayer (2D), MTS assay; assay type: cell-based; conditions: Homo sapiens, 48 h
[5] = test system: SH-SY5Y; test: Cell viability, monolayer (2D), MTS assay; assay type: cell-based; conditions: Homo sapiens, 48 h
[6] = test system: U-2 OS cells; test: Scratch wound cell migration assay (IncuCyte); assay type: cell-based, human; conditions: 0.6 µM, 0.5% FBS, normalised against DMSO control (100%)
[7] = test system: U-2 OS cells; test: Cell cycle analysis by flow cytometry (propidium iodide); conditions: 2.5 µM, 24 h, U-2 OS
Method: Figure 6. […] DNA content was measured by flow cytometry and representative profiles are shown. (B) quantification of the proportion of cells in each phase of the cell cycle from the experiment described in (A). Results are mean percentage (n = 3 independent experiments).
Cellular evaluation methods
All media were supplemented with 10% fetal calf serum (unless overwise specified) and 2 mM L-glutamine and cells were cultured
F68-pluronic acid. Cells were fixed for 2h in ice-cold ethanol, then washed twice in PBS containing 0.1% F68-pluronic acid, centrifuged at 200 g and resuspended in a PBS buffer containing 1% Triton, 100 µg/ml RNase A (Thermo Scientific) and 40 µg/ml propidium iodide (Life Technologies). DNA content was determined using a FACS Canto II (BD) and the data were analyzed using FCS Express Cytometry software (De Novo Software).
Twenty thousand events were collected in each run.

selectivity for CDK2 vs Haspin ([1]; SI = IC50 kinase X/IC50 Haspin): 716 fold | IC50 ([1]; read-out: IC50 CDK2): 4.3 µM | selectivity for CDK5 vs Haspin [2]: 150 fold | selectivity for CDK9 vs Haspin [3]: 28 fold | EC50 [5]: > 10 µM
SMILES: c1cc2[nH]ncc2cc1-c1cnc2ccc(OC[C@@H]3CNCCO3)nn12 [Compound 21]
EC50 [4]: 4.6 µM | normalised wound closure after 24 h [6]: around 100% | cells in G2/M phase (% of cell total population) ([7]; DMSO control 12.8%): 21.4% | cells in S phase (% of cell total population) ([7]; DMSO control 51.9%): 32%
